{"source": "BindingDB's records for PubMed 21964340", "key": {"[1]": {"biological_target": "Sodium-dependent noradrenaline transporter (Homo sapiens) (UniProt P23975)", "sequence (P23975 whole entry, looked up)": "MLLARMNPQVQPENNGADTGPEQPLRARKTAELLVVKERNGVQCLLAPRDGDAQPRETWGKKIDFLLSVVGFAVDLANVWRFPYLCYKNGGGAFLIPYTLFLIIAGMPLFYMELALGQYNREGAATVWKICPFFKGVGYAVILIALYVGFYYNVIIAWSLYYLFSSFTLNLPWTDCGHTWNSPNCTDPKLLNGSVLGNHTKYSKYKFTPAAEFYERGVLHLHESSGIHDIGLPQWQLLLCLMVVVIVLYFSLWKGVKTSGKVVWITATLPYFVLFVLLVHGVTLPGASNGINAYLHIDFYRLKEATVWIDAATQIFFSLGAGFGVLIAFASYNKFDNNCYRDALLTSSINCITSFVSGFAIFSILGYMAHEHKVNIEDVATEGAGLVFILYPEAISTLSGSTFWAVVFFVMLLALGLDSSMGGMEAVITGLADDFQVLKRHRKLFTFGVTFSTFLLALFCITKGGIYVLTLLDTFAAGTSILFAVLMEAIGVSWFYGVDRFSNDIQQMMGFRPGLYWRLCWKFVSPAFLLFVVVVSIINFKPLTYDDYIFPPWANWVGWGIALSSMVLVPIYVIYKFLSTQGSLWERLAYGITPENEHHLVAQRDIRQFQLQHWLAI", "assay": "Inhibition of human NET by scintillation proximity assay"}, "[2]": {"assay": "Inhibition of OGT (unknown origin) incubated for 1 hr by colloidal coomassie staining based LC-MS/MS analysis"}, "[3]": {"assay": "Inhibition of TKT (unknown origin) incubated for 1 hr by colloidal coomassie staining based LC-MS/MS analysis"}, "[4]": {"assay": "Inhibition of RFC1 (unknown origin) incubated for 1 hr by colloidal coomassie staining based LC-MS/MS analysis"}, "[5]": {"assay": "Inhibition of PUS1 (unknown origin) incubated for 1 hr by colloidal coomassie staining based LC-MS/MS analysis"}, "[6]": {"assay": "Inhibition of RPN2 (unknown origin) incubated for 1 hr by colloidal coomassie staining based LC-MS/MS analysis"}, "[7]": {"assay": "Inhibition of ARL1 (unknown origin) incubated for 1 hr by colloidal coomassie staining based LC-MS/MS analysis"}, "[8]": {"assay": "Inhibition of UBA1 (unknown origin) incubated for 1 hr by colloidal coomassie staining based LC-MS/MS analysis"}, "[9]": {"assay": "Inhibition of KPNA1 (unknown origin) incubated for 1 hr by colloidal coomassie staining based LC-MS/MS analysis"}, "[10]": {"assay": "Inhibition of CCNL2 (unknown origin) incubated for 1 hr by colloidal coomassie staining based LC-MS/MS analysis"}, "[11]": {"assay": "Inhibition of PTBP1 (unknown origin) incubated for 1 hr by colloidal coomassie staining based LC-MS/MS analysis"}, "[12]": {"assay": "Inhibition of INTS8 (unknown origin) incubated for 1 hr by colloidal coomassie staining based LC-MS/MS analysis"}, "[13]": {"assay": "Inhibition of LAS1L (unknown origin) incubated for 1 hr by colloidal coomassie staining based LC-MS/MS analysis"}, "[14]": {"assay": "Inhibition of ABCF1 (unknown origin) incubated for 1 hr by colloidal coomassie staining based LC-MS/MS analysis"}, "[15]": {"assay": "Inhibition of NACC1 (unknown origin) incubated for 1 hr by colloidal coomassie staining based LC-MS/MS analysis"}, "[16]": {"assay": "Inhibition of WDR33 (unknown origin) incubated for 1 hr by colloidal coomassie staining based LC-MS/MS analysis"}, "[17]": {"assay": "Inhibition of PIAS4 (unknown origin) incubated for 1 hr by colloidal coomassie staining based LC-MS/MS analysis"}, "[18]": {"assay": "Inhibition of LENG8 (unknown origin) incubated for 1 hr by colloidal coomassie staining based LC-MS/MS analysis"}, "[19]": {"assay": "Inhibition of PRDX6 (unknown origin) incubated for 1 hr by colloidal coomassie staining based LC-MS/MS analysis"}, "[20]": {"assay": "Inhibition of POLR2B (unknown origin) incubated for 1 hr by colloidal coomassie staining based LC-MS/MS analysis"}, "[21]": {"assay": "Inhibition of CORO1A (unknown origin) incubated for 1 hr by colloidal coomassie staining based LC-MS/MS analysis"}, "[22]": {"assay": "Inhibition of PSMD11 (unknown origin) incubated for 1 hr by colloidal coomassie staining based LC-MS/MS analysis"}, "[23]": {"assay": "Inhibition of RPS15A (unknown origin) incubated for 1 hr by colloidal coomassie staining based LC-MS/MS analysis"}, "[24]": {"assay": "Inhibition of SFRS10 (unknown origin) incubated for 1 hr by colloidal coomassie staining based LC-MS/MS analysis"}, "[25]": {"assay": "Inhibition of SMCHD1 (unknown origin) incubated for 1 hr by colloidal coomassie staining based LC-MS/MS analysis"}, "[26]": {"assay": "Inhibition of SF3B14 (unknown origin) incubated for 1 hr by colloidal coomassie staining based LC-MS/MS analysis"}, "[27]": {"assay": "Inhibition of CSNK2A1 (unknown origin) incubated for 1 hr by colloidal coomassie staining based LC-MS/MS analysis"}, "[28]": {"assay": "Inhibition of HIST1H2BA (unknown origin) incubated for 1 hr by colloidal coomassie staining based LC-MS/MS analysis"}, "[29]": {"assay": "Binding affinity against ELL (unknown origin) assessed as apparent dissociation constant incubated for 1 hr by colloidal coomassie staining based LC-MS/MS analysis"}, "[30]": {"assay": "Binding affinity against OGT (unknown origin) assessed as apparent dissociation constant incubated for 1 hr by colloidal coomassie staining based LC-MS/MS analysis"}, "[31]": {"assay": "Binding affinity against DSG1 (unknown origin) assessed as apparent dissociation constant incubated for 1 hr by colloidal coomassie staining based LC-MS/MS analysis"}, "[32]": {"assay": "Binding affinity against RFC1 (unknown origin) assessed as apparent dissociation constant incubated for 1 hr by colloidal coomassie staining based LC-MS/MS analysis"}, "[33]": {"assay": "Binding affinity against BRD9 (unknown origin) assessed as apparent dissociation constant incubated for 1 hr by colloidal coomassie staining based LC-MS/MS analysis"}, "[34]": {"assay": "Binding affinity against CCT2 (unknown origin) assessed as apparent dissociation constant incubated for 1 hr by colloidal coomassie staining based LC-MS/MS analysis"}, "[35]": {"assay": "Binding affinity against NOLC1 (unknown origin) assessed as apparent dissociation constant incubated for 1 hr by colloidal coomassie staining based LC-MS/MS analysis"}, "[36]": {"assay": "Binding affinity against PSME3 (unknown origin) assessed as apparent dissociation constant incubated for 1 hr by colloidal coomassie staining based LC-MS/MS analysis"}, "[37]": {"assay": "Binding affinity against GTF2I (unknown origin) assessed as apparent dissociation constant incubated for 1 hr by colloidal coomassie staining based LC-MS/MS analysis"}, "[38]": {"assay": "Binding affinity against PWWP2B (unknown origin) assessed as apparent dissociation constant incubated for 1 hr by colloidal coomassie staining based LC-MS/MS analysis"}, "[39]": {"assay": "Binding affinity against TUBA4A (unknown origin) assessed as apparent dissociation constant incubated for 1 hr by colloidal coomassie staining based LC-MS/MS analysis"}, "[40]": {"assay": "Binding affinity against SETD1B (unknown origin) assessed as apparent dissociation constant incubated for 1 hr by colloidal coomassie staining based LC-MS/MS analysis"}}}
{"smiles": "CCNC(=O)C[C@@H]1N=C(c2ccc(Cl)cc2)c2cc(OC)ccc2-n2c(C)nnc21", "values": [{"measurement": "IC50", "setting": "[1]", "value": "> 100000", "unit": "nM"}, {"measurement": "IC50", "setting": "[2]", "value": 480, "unit": "nM"}, {"measurement": "IC50", "setting": "[3]", "value": 5270, "unit": "nM"}, {"measurement": "IC50", "setting": "[4]", "value": 50, "unit": "nM"}, {"measurement": "IC50", "setting": "[5]", "value": "> 10000", "unit": "nM"}, {"measurement": "IC50", "setting": "[6]", "value": "> 10000", "unit": "nM"}, {"measurement": "IC50", "setting": "[7]", "value": "> 10000", "unit": "nM"}, {"measurement": "IC50", "setting": "[8]", "value": "> 10000", "unit": "nM"}, {"measurement": "IC50", "setting": "[9]", "value": 30, "unit": "nM"}, {"measurement": "IC50", "setting": "[10]", "value": 50, "unit": "nM"}, {"measurement": "IC50", "setting": "[11]", "value": "> 10000", "unit": "nM"}, {"measurement": "IC50", "setting": "[12]", "value": "> 10000", "unit": "nM"}, {"measurement": "IC50", "setting": "[13]", "value": 270, "unit": "nM"}, {"measurement": "IC50", "setting": "[14]", "value": "> 10000", "unit": "nM"}, {"measurement": "IC50", "setting": "[15]", "value": "> 10000", "unit": "nM"}, {"measurement": "IC50", "setting": "[16]", "value": 1090, "unit": "nM"}, {"measurement": "IC50", "setting": "[17]", "value": "> 10000", "unit": "nM"}, {"measurement": "IC50", "setting": "[18]", "value": 100, "unit": "nM"}, {"measurement": "IC50", "setting": "[19]", "value": "> 10000", "unit": "nM"}, {"measurement": "IC50", "setting": "[20]", "value": 150, "unit": "nM"}, {"measurement": "IC50", "setting": "[21]", "value": "> 10000", "unit": "nM"}, {"measurement": "IC50", "setting": "[22]", "value": 60, "unit": "nM"}, {"measurement": "IC50", "setting": "[23]", "value": 1390, "unit": "nM"}, {"measurement": "IC50", "setting": "[24]", "value": 230, "unit": "nM"}, {"measurement": "IC50", "setting": "[25]", "value": 1070, "unit": "nM"}, {"measurement": "IC50", "setting": "[26]", "value": "> 10000", "unit": "nM"}, {"measurement": "IC50", "setting": "[27]", "value": 120, "unit": "nM"}, {"measurement": "IC50", "setting": "[28]", "value": "> 10000", "unit": "nM"}, {"measurement": "Kd", "setting": "[29]", "value": 66, "unit": "nM"}, {"measurement": "Kd", "setting": "[30]", "value": 223, "unit": "nM"}, {"measurement": "Kd", "setting": "[31]", "value": 4620, "unit": "nM"}, {"measurement": "Kd", "setting": "[32]", "value": 54, "unit": "nM"}, {"measurement": "Kd", "setting": "[33]", "value": 20, "unit": "nM"}, {"measurement": "Kd", "setting": "[34]", "value": 1620, "unit": "nM"}, {"measurement": "Kd", "setting": "[35]", "value": 63, "unit": "nM"}, {"measurement": "Kd", "setting": "[36]", "value": 84, "unit": "nM"}, {"measurement": "Kd", "setting": "[37]", "value": 7550, "unit": "nM"}, {"measurement": "Kd", "setting": "[38]", "value": 25, "unit": "nM"}, {"measurement": "Kd", "setting": "[39]", "value": 102, "unit": "nM"}, {"measurement": "Kd", "setting": "[40]", "value": 45, "unit": "nM"}]}
